We go through three compounds from patent US20170266257A1, “METHODS OF TREATING TRAUMATIC BRAIN INJURY” (OXEIA BIOPHARMACEUTICALS, INC., priority 2014, published 2017).

One assay deals with GHS-R (Homo sapiens, UniProt Q92847). In words: cell based assay of GHS-R antagonist activity (Table 4).
Assay [1] deals with rat model of Parkinson's disease. The settings on record: cited from earlier work.
The subject of another assay is ischemic brain injury. The following applies: after ischemic brain injury; cited from earlier work.

GHS-R, sequence (Q92847 whole entry): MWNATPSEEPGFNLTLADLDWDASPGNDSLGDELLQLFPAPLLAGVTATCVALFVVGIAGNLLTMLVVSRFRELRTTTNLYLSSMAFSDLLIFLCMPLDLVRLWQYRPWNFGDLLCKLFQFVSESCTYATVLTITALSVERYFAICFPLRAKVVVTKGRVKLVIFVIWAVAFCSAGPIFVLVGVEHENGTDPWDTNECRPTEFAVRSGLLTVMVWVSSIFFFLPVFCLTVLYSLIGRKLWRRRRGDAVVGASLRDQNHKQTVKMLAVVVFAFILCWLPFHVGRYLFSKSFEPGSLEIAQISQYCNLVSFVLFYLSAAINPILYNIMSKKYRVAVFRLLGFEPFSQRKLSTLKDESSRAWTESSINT

Turning to “3-Diethylamino-propane-1-sulfonic acid {(R)-1-[3-(5-bromo-pyridin-3-yl)-[1,2,4]oxadiazol-5-yl]-phenyl-propyl}-amide [Compound 103]”, the Ki – broadly, a dissociation constant, usually derived from enzyme kinetics or from competition with a known ligand – at GHS-R was in the range of 100 to 500 nM. The same measure, in the same setting: then `CCN(CC)CCCS(=O)(=O)N[C@H](CCc1ccccc1)c1nc(-c2cncn2C)n[nH]1` [Compound 135], with less than 100 nM.

As for `C=CC[C@]12CCCN1C(=O)CNC2=O` [NNZ-2591, cyclo-L-glycyl-L-2-allylproline], in assay [1], the motor function entry is given as “improves motor function”. Further, the neuroprotection entry in the assay on ischemic brain injury is “neuroprotective”.
